In brackets after ≈: the same amount, converted by molar mass.
Experiments:
[1] = tested on: Staphylococcus aureus SA1199A; experiment: broth micro-dilution MIC; type: cell-based
Procedure: (§1) The MIC's were determined using a standard broth micro-dilution assay.

[2] = tested on: Staphylococcus aureus 446; experiment: broth micro-dilution MIC; type: cell-based
Procedure: as §1

Entercoccus faecium 276 = experiment: broth micro-dilution MIC; type: cell-based
Procedure: as §1

[3] = tested on: Staphylococcus aureus X400; experiment: broth micro-dilution MIC; type: cell-based
Procedure: as §1

[4] = tested on: Staphylococcus aureus SA1199; experiment: broth micro-dilution MIC; type: cell-based
Procedure: as §1

[5] = tested on: Entercoccus faecium 180-1; experiment: broth micro-dilution MIC; type: cell-based
Procedure: as §1

[6] = tested on: Staphylococcus aureus X778; experiment: broth micro-dilution MIC; type: cell-based
Procedure: as §1

[7] = tested on: Staphylococcus aureus 491; experiment: broth micro-dilution MIC; type: cell-based
Procedure: as §1

[8] = tested on: Staphylococcus aureus 447; experiment: broth micro-dilution MIC; type: cell-based
Procedure: as §1

[9] = tested on: Streptococcus pyogenes C203; experiment: broth micro-dilution MIC; type: cell-based
Procedure: as §1

[10] = tested on: Staphylococcus aureus 489; experiment: broth micro-dilution MIC; type: cell-based
Procedure: as §1

Entercoccus faecium 180 = experiment: broth micro-dilution MIC; type: cell-based; conditions: Entercoccus faecium 180
Procedure: (§2) The formula I compounds have in vitro and in vivo activity against Gram-positive pathogenic bacteria. The MIC's were determined using a standard broth micro-dilution assay.

[11] = tested on: Enterococcus gallinarum 245; experiment: broth micro-dilution MIC; type: cell-based; conditions: Enterococcus gallinarum 245
Procedure: as §2

[12] = tested on: Staphylococcus haemolyticus 105; experiment: broth micro-dilution MIC; type: cell-based
Procedure: as §2

[13] = tested on: Staphylococcus epidermidis 270; experiment: broth micro-dilution MIC; type: cell-based
Procedure: as §2

[14] = tested on: Streptococcus pneumoniae P1; experiment: broth micro-dilution MIC; type: cell-based
Procedure: as §2

[15] = tested on: Staphylococcus haemolyticus 415; experiment: broth micro-dilution MIC; type: cell-based
Procedure: as §2

Entercoccus faecium 2041 = experiment: broth micro-dilution MIC; type: cell-based; conditions: Entercoccus faecium 2041
Procedure: as §2

[16] = tested on: vancomycin-resistant enterococci; experiment: broth micro-dilution, mean geometric MIC; type: cell-based, Enterococcus faecium and Enterococcus faecalis; conditions: enterococci, 24-hour incubation
[17] = tested on: vancomycin-susceptible enterococci; experiment: broth micro-dilution, mean geometric MIC; type: cell-based, Enterococcus faecium and Enterococcus faecalis; conditions: enterococci, 24-hour incubation
[18] = tested on: Staphylococcus aureus SA1199B; type: cell-based
Procedure: as §1

[19] = tested on: Staphylococcus aureus S13E; type: cell-based
Procedure: as §1

[20] = tested on: Haemophilus influenzae RD; experiment: broth micro-dilution MIC; type: cell-based; conditions: Haemophilus influenzae RD
Procedure: as §2

Structure (SMILES)	MIC [1]	MIC [2]	MIC (Entercoccus faecium 276)	MIC [3]	MIC [4]	MIC [5]	MIC [6]	MIC [7]	MIC [8]	MIC [9]	MIC [10]	MIC (Entercoccus faecium 180)	MIC [11]	MIC [12]	MIC [14]	MIC [15]	MIC (Entercoccus faecium 2041)	mean geometric MIC, Vancomycin Resistant Strains [16]	mean geometric MIC, Vancomycin Sensitive Strains [17]	MIC [18]	also measured
CCCCCCCCCCC#CCNC1(C)CC(OC2C(Oc3c4cc5cc3Oc3ccc(cc3Cl)C(OC3CC(C)(N)C(O)C(C)O3)C3NC(=O)C(NC(=O)C5NC(=O)C(CC(N)=O)NC(=O)C(NC(=O)C(CC(C)C)NC)C(O)c5ccc(c(Cl)c5)O4)c4ccc(O)c(c4)-c4c(O)cc(O)cc4C(C(=O)O)NC3=O)OC(CO)C(O)C2O)OC(C)C1O (stereo not drawn) [Compound 191]	0.5 µg/mL (≈ 0.282 µM)	2 µg/mL (≈ 1.13 µM)	4 µg/mL (≈ 2.26 µM)	1 µg/mL (≈ 0.565 µM)	2 µg/mL (≈ 1.13 µM)	0.25 µg/mL (≈ 0.141 µM)	2 µg/mL (≈ 1.13 µM)	1 µg/mL (≈ 0.565 µM)	2 µg/mL (≈ 1.13 µM)	≤ 0.06 µg/mL	2 µg/mL (≈ 1.13 µM)	4 µg/mL (≈ 2.26 µM)	8 µg/mL (≈ 4.52 µM)	2 µg/mL (≈ 1.13 µM)	≤ 0.06 µg/mL	8 µg/mL (≈ 4.52 µM)	1 µg/mL (≈ 0.565 µM)	6.7 µg/mL	0.57 µg/mL	2 µg/mL (≈ 1.13 µM)	MIC [13]: 2 µg/mL (≈ 1.13 µM); MIC [19]: 2 µg/mL (≈ 1.13 µM)
CNC(CC(C)C)C(=O)NC1C(=O)NC(CC(N)=O)C(=O)NC2C(=O)NC3C(=O)NC(C(=O)NC(C(=O)O)c4cc(O)cc(O)c4-c4cc3ccc4O)C(OC3CC(C)(N)C(O)C(C)O3)c3ccc(c(Cl)c3)Oc3cc2cc(c3OC2OC(CO)C(O)C(O)C2OC2CC(C)(NCc3ccc(N=Nc4ccccc4)cc3)C(O)C(C)O2)Oc2ccc(cc2Cl)C1O (stereo not drawn) [Compound 210]	≤ 0.06 µg/mL	2 µg/mL (≈ 1.12 µM)	≤ 0.06 µg/mL	≤ 0.06 µg/mL	0.5 µg/mL (≈ 0.28 µM)	≤ 0.06 µg/mL	1 µg/mL (≈ 0.56 µM)	≤ 0.06 µg/mL	0.5 µg/mL (≈ 0.28 µM)	≤ 0.06 µg/mL	1 µg/mL (≈ 0.56 µM)	≤ 0.06 µg/mL	1 µg/mL (≈ 0.56 µM)	1 µg/mL (≈ 0.56 µM)	≤ 0.06 µg/mL	1 µg/mL (≈ 0.56 µM)	≤ 0.06 µg/mL	0.84 µg/mL	0.041 µg/mL	0.125 µg/mL (≈ 0.07 µM)	MIC [13]: 0.25 µg/mL (≈ 0.14 µM); MIC [19]: ≤ 0.06 µg/mL
CNC(CC(C)C)C(=O)NC1C(=O)NC(CC(N)=O)C(=O)NC2C(=O)NC3C(=O)NC(C(=O)NC(C(=O)O)c4cc(O)cc(O)c4-c4cc3ccc4O)C(OC3CC(C)(N)C(O)C(C)O3)c3ccc(c(Cl)c3)Oc3cc2cc(c3OC2OC(CO)C(O)C(O)C2OC2CC(C)(NCc3ccc4c(c3)CCc3ccccc3-4)C(O)C(C)O2)Oc2ccc(cc2Cl)C1O (stereo not drawn) [Compound 220]	≤ 0.06 µg/mL	1 µg/mL (≈ 0.56 µM)	0.125 µg/mL (≈ 0.07 µM)	0.5 µg/mL (≈ 0.28 µM)	1 µg/mL (≈ 0.56 µM)	≤ 0.06 µg/mL	0.5 µg/mL (≈ 0.28 µM)	≤ 0.06 µg/mL	0.5 µg/mL (≈ 0.28 µM)	≤ 0.06 µg/mL	0.5 µg/mL (≈ 0.28 µM)	0.125 µg/mL (≈ 0.07 µM)	0.5 µg/mL (≈ 0.28 µM)	0.5 µg/mL (≈ 0.28 µM)	≤ 0.06 µg/mL	0.5 µg/mL (≈ 0.28 µM)	≤ 0.06 µg/mL	0.71 µg/mL	0.05 µg/mL	0.5 µg/mL (≈ 0.28 µM)	MIC [13]: 1 µg/mL (≈ 0.56 µM); MIC [19]: 0.5 µg/mL (≈ 0.28 µM)
CNC(CC(C)C)C(=O)NC1C(=O)NC(CC(N)=O)C(=O)NC2C(=O)NC3C(=O)NC(C(=O)NC(C(=O)O)c4cc(O)cc(O)c4-c4cc3ccc4O)C(OC3CC(C)(N)C(O)C(C)O3)c3ccc(c(Cl)c3)Oc3cc2cc(c3OC2OC(CO)C(O)C(O)C2OC2CC(C)(NCc3ccc(-c4cccc(C)c4)cc3)C(O)C(C)O2)Oc2ccc(cc2Cl)C1O (stereo not drawn) [Compound 224]	≤ 0.06 µg/mL	0.5 µg/mL (≈ 0.282 µM)	≤ 0.06 µg/mL	–	–	≤ 0.06 µg/mL	–	–	0.5 µg/mL (≈ 0.282 µM)	≤ 0.06 µg/mL	–	≤ 0.06 µg/mL	0.5 µg/mL (≈ 0.282 µM)	1 µg/mL (≈ 0.564 µM)	≤ 0.06 µg/mL	0.5 µg/mL (≈ 0.282 µM)	≤ 0.06 µg/mL	0.63 µg/mL	0.055 µg/mL	0.5 µg/mL (≈ 0.282 µM)	MIC [20]: 32 µg/mL (≈ 18.1 µM)
CCCCCC#Cc1ccc(CNC2(C)CC(OC3C(Oc4c5cc6cc4Oc4ccc(cc4Cl)C(OC4CC(C)(N)C(O)C(C)O4)C4NC(=O)C(NC(=O)C6NC(=O)C(CC(N)=O)NC(=O)C(NC(=O)C(CC(C)C)NC)C(O)c6ccc(c(Cl)c6)O5)c5ccc(O)c(c5)-c5c(O)cc(O)cc5C(C(=O)O)NC4=O)OC(CO)C(O)C3O)OC(C)C2O)cc1 (stereo not drawn) [Compound 227]	0.6 µg/mL (≈ 0.338 µM)	2 µg/mL (≈ 1.13 µM)	0.5 µg/mL (≈ 0.281 µM)	1 µg/mL (≈ 0.563 µM)	4 µg/mL (≈ 2.25 µM)	≤ 0.06 µg/mL	4 µg/mL (≈ 2.25 µM)	2 µg/mL (≈ 1.13 µM)	2 µg/mL (≈ 1.13 µM)	≤ 0.06 µg/mL	2 µg/mL (≈ 1.13 µM)	0.25 µg/mL (≈ 0.141 µM)	4 µg/mL (≈ 2.25 µM)	2 µg/mL (≈ 1.13 µM)	≤ 0.06 µg/mL	4 µg/mL (≈ 2.25 µM)	0.25 µg/mL (≈ 0.141 µM)	0.71 µg/mL	0.11 µg/mL	4 µg/mL (≈ 2.25 µM)	MIC [13]: 2 µg/mL (≈ 1.13 µM); MIC [19]: 4 µg/mL (≈ 2.25 µM)
CNC(CC(C)C)C(=O)NC1C(=O)NC(CC(N)=O)C(=O)NC2C(=O)NC3C(=O)NC(C(=O)NC(C(=O)O)c4cc(O)cc(O)c4-c4cc3ccc4O)C(OC3CC(C)(N)C(O)C(C)O3)c3ccc(c(Cl)c3)Oc3cc2cc(c3OC2OC(CO)C(O)C(O)C2OC2CC(C)(NCc3cccc(Sc4ccc(C(C)(C)C)cc4)c3)C(O)C(C)O2)Oc2ccc(cc2Cl)C1O (stereo not drawn) [Compound 228]	≤ 0.06 µg/mL	4 µg/mL (≈ 2.17 µM)	1 µg/mL (≈ 0.541 µM)	1 µg/mL (≈ 0.541 µM)	4 µg/mL (≈ 2.17 µM)	≤ 0.06 µg/mL	4 µg/mL (≈ 2.17 µM)	1 µg/mL (≈ 0.541 µM)	4 µg/mL (≈ 2.17 µM)	0.125 µg/mL (≈ 0.0677 µM)	2 µg/mL (≈ 1.08 µM)	1 µg/mL (≈ 0.541 µM)	4 µg/mL (≈ 2.17 µM)	2 µg/mL (≈ 1.08 µM)	≤ 0.06 µg/mL	4 µg/mL (≈ 2.17 µM)	0.25 µg/mL (≈ 0.135 µM)	1.0 µg/mL	0.14 µg/mL	4 µg/mL (≈ 2.17 µM)	MIC [13]: 2 µg/mL (≈ 1.08 µM); MIC [19]: 8 µg/mL (≈ 4.33 µM)

— patent US5840684A, “Glycopeptide antibiotic derivatives” (Eli Lilly and Company, priority 1995, dated 1998)
